Measurements from EP0930067A2, “MMP inhibitors for the treatment of ocular angiogenesis” (Pfizer Products Inc., priority 1997, dated 1999).

Tested on: angiogenesis
Assay: Inhibition of angiogenesis: in vivo rat model, pellet with angiogenic material (VEGF) and MMP inhibitor, corneal neovascularization scored after one week
Conditions: pellet implant
Procedure: Inhibition of Angiogenesis
The activity of MMP inhibitors, preferably MMP-2 or MMP-9 inhibitors, for inhibiting angiogenesis can be determined according to the following in vivo rat model. A 10µg pellet containing an angiogenic material, such as vascular endothelial growth factor (VEGF) and a matrix metalloproteinase inhibitor or placebo, is implanted intraorbitally. After one week the eyes are removed and the degree of inhibition of angiogenesis is determined qualitatively. Inhibitors with IC50's of less than 10nm reduced angiogenesis. […]

Row | Structure (SMILES) | % Response (10ng + VEGF) | Corneal Neovascularization (#Positive Response/#Response) (10ng + VEGF) | % Response (25ng + VEGF) | Corneal Neovascularization (#Positive Response/#Response) (25ng + VEGF) | % Response (50ng + VEGF) | Corneal Neovascularization (#Positive Response/#Response) (50ng + VEGF) | % Response (100ng + VEGF) | Corneal Neovascularization (#Positive Response/#Response) (100ng + VEGF)
1 | CC(C)(NS(=O)(=O)c1ccc(Oc2ccc(F)cc2)cc1)C(=O)NO [2-[4-(4-Fluoro-phenoxy)-benzenesulfonylamino]-N-hydroxy-2-methyl-propionamide] | 20% | 1/5 | 17% | 1/6 | 0% | 0/5 | 0% | 0/5
2 | O=C(NO)C1C2CCC(O2)C1S(=O)(=O)c1ccc(Oc2ccccc2)cc1 (stereo not drawn) [3-(4-Phenoxy-benzenesulfonyl)-7-oxa-bicyclo[2.2.1]heptane-2-carboxylic acid hydroxyamide] | 25% | 4/4 | 60% | 3/5 | 40% | 2/5 | 20% | 1/5
3 | O=C(O)CCN(C1(C(=O)NO)CCCC1)S(=O)(=O)c1ccc(Oc2ccc(F)cc2)cc1 [3-[[4-(4-Fluoro-phenoxy)-benzenesulfonyl]-(1-hydroxycarbamoyl-cyclopentyl)-amino]-propionic acid] | 25% | 1/4 | 17% | 1/6 | 0% | 0/5 | 0% | 0/5
